Values of other authors as cited in patent US20120093797A1, “COMBINED USE OF CREATINE PHOSPHATE AND CREATINE PHOSPHOKINASE FOR TREATMENT OF ARTERIOSCLEROSIS” (ARTCELL INVEST LTD., priority 2009, published 2012).

CN(CC(=O)O)C(=N)NP(=O)(O)O [CP, 2-[(amino-phosphonoimino-methyl)-methyl-amino]acetic acid]
Half-life of CP: 4 to 7 min
